The subject of data set [1] is dopaminergic receptors. As to the kind of experiment: Rotation behavior after unilateral lesion of the nigra-striated bundle by 6-hydroxydopamine. As to conditions: intraperitoneal; rats, groups of 8; starting dose. Format: in vivo, male rats. The protocol:
Male rats of 220 g were injured in the nigra-striated dopaminergic bundle according to Ungerstedt's method [Ungerstedt, Acta physiol. Scand. (1971) Vol. 82, suppl. 367.69-93], modified by unilateral injection of 9.2 μg of 6-hydroxydopamine hydrochloride in solution in 4 μl of physiological solution containing 0.5 mg/ml of ascorbic acid. […] It therefore caused an agonistic action on the dopaminergic receptors at the central level.

Data set [2] can be described thus: Determination of hypotensive activity (carotidien arterial pressure, anesthetised rats). In kind it is in vivo, male rats of WISTAR strain. As to conditions: vs initial control pressure. The protocol: The hypotensive activity was studied on male rats of WISTAR strain weighing about 300 g and anesthetised with nembutal (50 mg/kg by intraperitoneal route). The test product was administered intravenously into the jugular vein and the carotidien arterial pressure was measured before and after administration of the product. The following table reports the variations expressed in percentages of the arterial pressure after administration of the product in relation to the initial control arterial pressure.

For the next data set, the system named is cerebral neuronal cells. Nature of the data set: enolase test (brain deprived of blood by ligature of the arteries). In kind it is in vivo. As to conditions: Rattus norvegicus, ip; intraperitoneal; rats; read-out: dose to which the releasing of enolase is diminished. The protocol: Suffering cerebral neuronal cells release enolase and the test was carried out on rats whose brain had been totally deprived of blood by ligature of the arteries supplying the brain. The product of Example 3 administered intraperitoneally diminished the releasing of enolase to a dose of 0.1 mg/kg. Therefore it was considered that it protected the cerebral cells against ischemia.

Data set [3] has as its system dopaminergic receptors. Nature of the data set: Stereotype behavior. In kind it is in vivo, male rats. As to conditions: intraperitoneal; rats, groups of 5; observed every half hour over 5 hours; starting dose. The protocol: The tests were carried out on groups of 5 male rats weighing 150 to 180 g and each animal was placed individually in a barred cage (29×25×17 cm) containing a few wood shaving. The test product was administered intraperitoneally and the behavior of the animals was noted every half hour over 5 hours with the rating recommended by HALLIWELL et al. [Brit. J. Pharmacol. (1964), Vol. 23, p. 330-350]. The animal was asleep (0), it was awake but immobile (1), it turned in the cage (2), it sniffed the cover (3), it licked the walls (4), it touched the wood shavings or the bars of the cage with its teeth (5), it bit the shavings or the bars of the cage (6).
The total is determined of the scores per group taken at different times after administrationof the product studied.

Data set [4] in a line: Determination of antihypertensive activity (spontaneously hypertensive rats). Format: in vivo, spontaneously hypertensive male rats of the OKAMOTO strain. Conditions: 0.5 mg/kg orally; one hour after administration. The protocol: The anithypertensive activity was studied on spontaneously hypertensive male rats of the OKAMOTO strain aged 20 weeks and weighing 300 to 320 g. The product was administered orally 48 hours after the positioning of an intracarotidien catheter to measure the arterial pressure. The pressure was measured before and 1 hour after administration of the product. For the product of Example 3, at a dose of 0.5 mg/kg the variation in percentage of arterial pressure after administration of the product in relation to the initial control pressure was -15% one hour after administration.

A short description of a further data set: Acute toxicity (LD0). Conditions: oral, mice. In kind it is in vivo. The protocol: The lethal dose LD0 of the product of Example 3 was evaluated after oral administration to mice. LD0 is the maximum dose not causing any mortality in 8 days.
Data set [5] is described as follows: Test of hypobare anoxemia (antianoxic activity). In kind it is in vivo, male mice. As to conditions: head: orally, text: sub-cutaneously, 90 mm of Hg. How it is done: A--Test of hypobare anoxemia:
Male mice weighing 20-22 g, having fasted for 5 hours, were divided into groups of 10 animals and the test product was administered to the animals sub-cutaneously. Fifteen minutes after administration of the product, the animals were placed in a 2 liter dessicator in which the pressure was brought rapidly to 90 mm of Hg by a pump, and their time of survival was noted expressed in seconds. The increase of the survival time was recorded expressed as a percentage of the animals treated in relation to the control animals submitted to the same conditions.

On to `CCCN1CCO[C@@H]2Cc3n[nH]cc3C[C@H]21` (relative stereo) [Example 3, [4a SR trans]-5-propyl-2,4,4a,5,6,7,8a,9-octahydro-pyrazolo-[4,3-g]-1,4-benzoxazine], for which, in the data set with dopaminergic receptors [1], the “dose from which rotations contra-lateral to the injured side are caused” value is recorded as 0.05 mg/kg. For the same compound, the “% Variation of arterial pressure, 5 minutes after administration” value (“% Variation … 5 minutes after administration” for short) in data set [2] (0.01 mg/kg intravenous) is on record as -19%; in data set [2] (0.1 mg/kg intravenous) it was -26%. Further, the figures for the “% Variation of arterial pressure, 30 minutes after administration” value (“% Variation … 30 minutes after administration” for short) in data set [2] (0.01 mg/kg intravenous) and in data set [2] (0.1 mg/kg intravenous) were -8% and -21%, respectively. The minimal effective dose in the data set on cerebral neuronal cells was 0.1 mg/kg. Also, the “dose from which stereotype movements are caused” value with dopaminergic receptors [3] is on record as 0.1 mg/kg. Also, the “variation in percentage of arterial pressure in relation to the initial control pressure” value in data set [4] is on record as -15%. In addition, in “Acute toxicity (LD0)”, the “LD0 (maximum dose not causing any mortality in 8 days)” value is on record as ≥ 200 mg/kg. The “Increase in survival time” value in data set [5] (0.01 mg/kg) is reported as “+37%”; in data set [5] (0.1 mg/kg) it was “+90%”.
“4a RS (4aα,7α,8aβ)-7-methylthiomethyl-2,4,4a,5,6,7,8a,9-octahydro-5-propylpyrazolo-[3,4-g]-1,4-benzoxazine hydrochloride [Example 4]”: in data set [2] (0.01 mg/kg intravenous), the “% Variation … 5 minutes after administration” value is listed as -5% and the “% Variation … 30 minutes after administration” value is listed as -5%. For the same compound, in data set [2] (0.1 mg/kg intravenous), the “% Variation … 5 minutes after administration” value was -21% and the “% Variation … 30 minutes after administration” value was -17%. Also, in data set [5] (1 mg/kg), the “Increase in survival time” value is “+32%”.

The record behind these values is patent publication US4661482A, “Use of pyrazolobenzoxazines in method of treating cerebral senescence and cerebral hypoxin” (Roussel Uclaf, priority 1985, dated 1987).
